Measurements reported in patent US20190255138A1, “A NATURAL COMPOSITION TO INHIBIT BETA-SECRETASE AND ENHANCE BIOAVAILABILITY COMPRISING OF TURMERIC AND SESAME SEED EXTRACT” (priority 2016, published 2019).
Non-standard residues stand in square brackets, D forms with d. No end group written: not given here. Sta = CC(C)C[C@H](N)[C@@H](O)CC(=O)O

Target: β-Secretase (human, recombinant) (Homo sapiens, UniProt P56817)
Test: β-Secretase inhibitory activity assay (fluorescent substrate, HPLC peak area of degradative fragment)
Format: biochemical
Conditions: inhibitor 2 μg/ml; for Peak area ± S.D.: mean ± S.D. of triplicates
Method: (§1) β-Secretase (human, recombinant), A fluorescent substrate [MOCAc-[…](Dnp) Arg-Arg-NH2] and a β-secretase inhibitor[[…]Sta-Val-Ala-Glu-Phe(Sta:(3S,4S)-4-amino-3-hydroxy-6-methylheptanoic acid)] Other reagents used in this study were analytical grade. Sesamin-sesamolin in different ratios prepared as per examples 10.
(§2) Samples in a dimethylsulfoxide solution (2 μl), at an appropriate concentration, were diluted with 78 μl of assay buffer (20 mM acetate buffer, pH=4.5 containing 1% triton X-100) in a 96-well microplate. 10 μl of β-secretase solution in assay buffer (17.4 μg protein/ml) was added to the diluted solution, and incubated at 37° C. for 20 min. After incubation, 10 μl of substrate solution with assay buffer (0.1 mM) was added and incubated at 37° C. for 2 h. Fifty μl of reaction solution was then added to 450 μl of 2.5 M sodium acetate solution to terminate the reaction. The diluted solution was analyzed by HPLC applying the conditions listed below. Column: L-column ODS (Chemicals Evaluation and Research Institute, Tokyo, Japan, 4.6 i.d.×250 mm), mobile phase; 0.1% (v/v) formic acid/acetonitrile (0.1% (v/v) formic acid); 0 min (9:1), 17.5 min (5.5:4.5), 17.6 min (0.5:9.5), 22.5 min (0.5:9.5), column temperature: 40° C., flow rate; 1 ml/min, detection; fluorescent of excitation at 325 nm and emission at 395 nm, injection volume; 20 μl. The peak area of the peak derived from the degradative fluorescent fragment (retention time 15.7 min) was integrated and the peak area was found. The inhibitory activity of the sample was calculated using the following equation.
Inhibition (%)=100−[(Peak area from sample group)/(Peak area from control group)×100]
as §1, with “recombinant).” for “recombinant),”, “acid)].” for “acid)]”, “Essential oil of turmeric (EOT) with” for “Sesamin-sesamolin in”, “percentage of α-turmerone” for “ratios”, “2.” for “10.”
as §2, with “temperature;” for “temperature:”
β-Secretase (human, recombinant), A fluorescent substrate [MOCAc-[…](Dnp) Arg-Arg-NH2] and a β-secretase inhibitor[[…]Sta-Val-Ala-Glu-Phe(Sta:(3S,4S)-4-amino-3-hydroxy-6-methylheptanoic acid)]. Other reagents used in this study were analytical grade.
Samples in a dimethylsulfoxide solution (2 μl), at an appropriate concentration, were diluted with […] of assay buffer (20 mM acetate buffer, pH=4.5 containing 1% triton X-100) in a 96-well microplate. 10 μl of β-secretase solution in assay buffer (17.4 μg protein/ml) was added to the diluted solution, and incubated at 37° C. for 20 min.

β-Secretase (human, recombinant), sequence (P56817 46-501): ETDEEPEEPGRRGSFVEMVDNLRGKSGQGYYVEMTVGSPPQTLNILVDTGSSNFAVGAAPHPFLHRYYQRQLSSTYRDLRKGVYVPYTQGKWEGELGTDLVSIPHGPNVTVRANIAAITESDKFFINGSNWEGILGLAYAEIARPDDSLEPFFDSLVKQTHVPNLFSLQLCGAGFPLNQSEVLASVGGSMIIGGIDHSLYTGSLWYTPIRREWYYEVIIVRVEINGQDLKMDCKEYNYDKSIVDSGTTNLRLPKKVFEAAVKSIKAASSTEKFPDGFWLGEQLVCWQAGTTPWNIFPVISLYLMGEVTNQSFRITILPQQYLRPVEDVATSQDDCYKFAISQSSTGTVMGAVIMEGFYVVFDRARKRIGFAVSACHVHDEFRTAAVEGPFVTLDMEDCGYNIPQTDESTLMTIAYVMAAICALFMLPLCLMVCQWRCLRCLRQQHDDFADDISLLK

Inhibition (%) (Example 17): 47.33%
Peak area ± S.D. (Example 17): 2256512 ± 24323
Inhibition (%) (Example 18): 45.67%
Peak area ± S.D. (Example 18): 2386115 ± 25498
Inhibition (%) (Example 19): 48.31%
Peak area ± S.D. (Example 19): 2418426 ± 23621
Inhibition (%) (Example 20): 48.8%
Peak area ± S.D. (Example 20): 2299129 ± 25842
Inhibition (%) (Example 22): 45.77%
Peak area ± S.D. (Example 22): 2385632 ± 27453
Substance: KTEEISEVN[Sta]VAEF [Inhibitor]
